These results are taken from patent US4309362A, “Process for the optical resolution of DL-p-hydroxy-phenylglycine” (Tanabe Seiyaku Co., Ltd., priority 1976, dated 1982).

≈ marks a conversion by molar mass, not a printed value.

The nature of series [1]: physchem. The note with it: water. Type of series: physicochemical. How it is done:
DL-, D- or L-p-hydroxyphenylglycine sulfosalicylate is prepared in the same manner as described in Example 1.
p-hydroxyphenyl- Specific Solubility (g/100
Melting rotation ml of water)

The nature of series [2]: Solubility of p-hydroxyphenylglycine o-toluenesulfonate in water (Table 3). Type of series: physicochemical.
Series [3] in a line: Solubility of p-hydroxyphenylglycine p-ethylbenzenesulfonate in aqueous 3 M p-ethylbenzenesulfonic acid (Table 2). Type of series: physicochemical. The note with it: aqueous 3 M p-ethylbenzenesulfonic acid solution. The text has this:
*an aqueous 3 M pethylbenzenesulfonate acid solution

Series [4] is described as follows: physchem. The note with it: 0.5 m benzenesulfonic acid, organic solvent or mixture, aqueous 0.5 M benzenesulfonic acid solution.

Consider `N[C@@H](C(=O)O)c1ccc(O)cc1` (single isomer, unassigned; enantiomer d) [p-hydroxyphenylglycine sulfosalicylate monohydrate, D-enantiomer, D-p-hydroxyphenylglycine sulfosalicylate], for which the solubility is 14.0 g/100 ml of water in series [1] and 100 mg/mL in series [1] (Solubility).
For `N[C@@H](C(=O)O)c1ccc(O)cc1` [p-hydroxyphenylglycine o-toluenesulfonate, D-enantiomer, D-p-hydroxyphenylglycine o-toluenesulfonate], the values for the solubility in series [2] (20° C.), in series [2] (30° C.) and in series [2] (40° C.) were 77 mg/mL (≈ 461 mM), 96 mg/mL (≈ 574 mM) and 122 mg/mL (≈ 730 mM), respectively.
For `N[C@H](C(=O)O)c1ccc(O)cc1` [p-hydroxyphenylglycine p-ethylbenzenesulfonate, L-enantiomer, L-p-hydroxyphenylglycine p-ethylbenzenesulfonate], the values for the solubility in series [3] (20° C.), in series [3] (30° C.) and in series [3] (40° C.) were 10.3 g/100 ml of solvent, 14.2 g/100 ml of solvent and 21.8 g/100 ml of solvent, respectively.
As to `N[C@H](C(=O)O)c1ccc(O)cc1` [p-hydroxyphenylglycine o-toluenesulfonate, L-enantiomer, L-p-hydroxyphenylglycine o-toluenesulfonate], the solubility came out at 77 mg/mL (≈ 461 mM) in series [2] (20° C.), 96 mg/mL (≈ 574 mM) in series [2] (30° C.) and 122 mg/mL (≈ 730 mM) in series [2] (40° C.).
For the compound `N[C@@H](C(=O)O)c1ccc(O)cc1` (single isomer, unassigned; enantiomer d) [p-hydroxyphenylglycine p-ethylbenzenesulfonate, D-enantiomer, D-p-hydroxyphenylglycine p-ethylbenzenesulfonate], the solubility in series [3] (20° C.) is 10.3 g/100 ml of solvent; in series [3] (30° C.) it was 14.2 g/100 ml of solvent; in series [3] (40° C.), 21.8 g/100 ml of solvent.
For the compound `NC(C(=O)O)c1ccc(O)cc1` (racemic) [DL-p-hydroxyphenylglycine sulfosalicylate], the solubility in series [1] was 26.3 g/100 ml of water; in series [1] (Solubility), 182 mg/mL (≈ 1090 mM).
Consider `N[C@@H](C(=O)O)c1ccc(O)cc1.O=S(=O)(O)c1ccccc1` [p-hydroxyphenylglycine benzenesulfonate, D-enantiomer, D-p-hydroxyphenylglycine benzenesulfonate], for which the solubility in series [4] (20° C.) turned out to be 77 mg/mL; in series [4] (30° C.) it was 110 mg/mL; in series [4] (40° C.), 167 mg/mL.
As to `NC(C(=O)O)c1ccc(O)cc1` (racemic) [DL-p-hydroxyphenylglycine o-toluenesulfonate], the results for the solubility in series [2] (20° C.), in series [2] (30° C.) and in series [2] (40° C.) were 123 mg/mL (≈ 736 mM), 160 mg/mL (≈ 957 mM) and 210 mg/mL (≈ 1260 mM), respectively.
As to `N[C@H](C(=O)O)c1ccc(O)cc1.O=S(=O)(O)c1ccccc1` [p-hydroxyphenylglycine benzenesulfonate, L-enantiomer, L-p-hydroxyphenylglycine benzenesulfonate], the solubility was 77 mg/mL in series [4] (20° C.), 110 mg/mL in series [4] (30° C.) and 167 mg/mL in series [4] (40° C.).
Consider `N[C@H](C(=O)O)c1ccc(O)cc1` [p-hydroxyphenylglycine sulfosalicylate monohydrate, L-enantiomer, L-p-hydroxyphenylglycine sulfosalicylate], for which the solubility in series [1] is 14.0 g/100 ml of water; in series [1] (Solubility) it was 100 mg/mL.
With `NC(C(=O)O)c1ccc(O)cc1` (racemic) [DL-p-hydroxyphenylglycine p-ethylbenzenesulfonate], the solubility in series [3] (20° C.) is listed as 19.3 g/100 ml of solvent; in series [3] (30° C.), 33.2 g/100 ml of solvent; in series [3] (40° C.), 52.1 g/100 ml of solvent.
For `NC(C(=O)O)c1ccc(O)cc1.O=S(=O)(O)c1ccccc1` (racemic) [DL-p-hydroxyphenylglycine benzenesulfonate], the solubility amounted to 154 mg/mL in series [4] (20° C.), 241 mg/mL in series [4] (30° C.) and 350 mg/mL in series [4] (40° C.).

In general, solubility refers to the concentration that dissolves in the medium under given conditions.
